According to patent publication US5410052A, “Symmetrical and unsymmetrical polyalkylamine metal complexes for ligand extraction and generation” (The Regents of the University of California, priority 1990, dated 1995):

Experiment: UV-visible spectroscopic evaluation of oxygen complex formation by cobalt carrier compounds
Format: binding
Text: Initially, solutions of particular carrier compounds are monitored by UV-visible spectroscopy to determine whether the carrier compound forms oxygen complexes of sufficient stability as to be potentially useful in processes according to the present invention. UV-visible spectra of carrier compounds are also observed as a function of the pH to determine the pH range, if any, over which the carrier compounds bind oxygen without decomposition. The initial pH for use in further experiments (the "Working pH") is defined as one pH unit above that at which the proportion of carrier compound-oxygen complex is about 90% or more of the maximum formed under ca. 0.2 atm oxygen, as determined by this spectroscopic examination. […] An initial working pH can also be determined from potentiometric experiments on the oxygen complexes of cobalt carrier compounds, as will be discussed below.
The necessary UV and visible spectra necessary for this evaluation are obtained with any of a variety of commercially available spectrophotometers. The solution to be measured is prepared in or transferred to a suitable quartz cell with provision for the exclusion of oxygen. […] Spectra are then recorded under both oxygen free and oxygenated conditions at each of the desired pH values.

| Structure (SMILES) | oxygen binding of the cobalt complex (cobalt complex of the PAA, spectrophotometric analysis, under conditions of interest) | oxidation of the cobalt ion of the Co(II) complex (Co(II) complex of the PAA) |
| --- | --- | --- |
| CN(CCCNCc1ccccn1)CCCNCc1ccccn1 [PAA No. 76, 1,11-Bis(2-Pyridyl)-6-Methyl-2,6,10-Triazaundecane] | does not appear to bind oxygen |  |
| c1ccc(CNCc2cccc(CNCc3ccccn3)n2)nc1 [PAA No. 21, 2,6-Bis(l-(3-(2-Pyridyl)-2-Azapropyl))Pyridine] |  | relatively rapid, irreversible oxidation of the cobalt ion to Co(III) |
